Source: ChEMBL document CHEMBL1135040, “[(3)H]-M-MPEP, a potent, subtype-selective radioligand for the metabotropic glutamate receptor subtype 5” (Bioorg Med Chem Lett, 2002)

Key:
[1] = target: T1, Metabotropic glutamate receptor 5 (Homo sapiens, UniProt P41594); experiment: In vitro for inhibitory activity of compound against recombinant Metabotropic glutamate receptor 5 evaluated as inhibition of quisqualate-stimulated phosphoinositide (PI) hydrolysis; format: functional
[2] = target: T1, Metabotropic glutamate receptor 5; experiment: Tested in vitro binding affinity for displacement of [3H]M-MPEP from membrane of L(-tk) cells expressing the Metabotropic glutamate receptor 5, activity expressed as IC50

T1 sequence (P41594 whole entry): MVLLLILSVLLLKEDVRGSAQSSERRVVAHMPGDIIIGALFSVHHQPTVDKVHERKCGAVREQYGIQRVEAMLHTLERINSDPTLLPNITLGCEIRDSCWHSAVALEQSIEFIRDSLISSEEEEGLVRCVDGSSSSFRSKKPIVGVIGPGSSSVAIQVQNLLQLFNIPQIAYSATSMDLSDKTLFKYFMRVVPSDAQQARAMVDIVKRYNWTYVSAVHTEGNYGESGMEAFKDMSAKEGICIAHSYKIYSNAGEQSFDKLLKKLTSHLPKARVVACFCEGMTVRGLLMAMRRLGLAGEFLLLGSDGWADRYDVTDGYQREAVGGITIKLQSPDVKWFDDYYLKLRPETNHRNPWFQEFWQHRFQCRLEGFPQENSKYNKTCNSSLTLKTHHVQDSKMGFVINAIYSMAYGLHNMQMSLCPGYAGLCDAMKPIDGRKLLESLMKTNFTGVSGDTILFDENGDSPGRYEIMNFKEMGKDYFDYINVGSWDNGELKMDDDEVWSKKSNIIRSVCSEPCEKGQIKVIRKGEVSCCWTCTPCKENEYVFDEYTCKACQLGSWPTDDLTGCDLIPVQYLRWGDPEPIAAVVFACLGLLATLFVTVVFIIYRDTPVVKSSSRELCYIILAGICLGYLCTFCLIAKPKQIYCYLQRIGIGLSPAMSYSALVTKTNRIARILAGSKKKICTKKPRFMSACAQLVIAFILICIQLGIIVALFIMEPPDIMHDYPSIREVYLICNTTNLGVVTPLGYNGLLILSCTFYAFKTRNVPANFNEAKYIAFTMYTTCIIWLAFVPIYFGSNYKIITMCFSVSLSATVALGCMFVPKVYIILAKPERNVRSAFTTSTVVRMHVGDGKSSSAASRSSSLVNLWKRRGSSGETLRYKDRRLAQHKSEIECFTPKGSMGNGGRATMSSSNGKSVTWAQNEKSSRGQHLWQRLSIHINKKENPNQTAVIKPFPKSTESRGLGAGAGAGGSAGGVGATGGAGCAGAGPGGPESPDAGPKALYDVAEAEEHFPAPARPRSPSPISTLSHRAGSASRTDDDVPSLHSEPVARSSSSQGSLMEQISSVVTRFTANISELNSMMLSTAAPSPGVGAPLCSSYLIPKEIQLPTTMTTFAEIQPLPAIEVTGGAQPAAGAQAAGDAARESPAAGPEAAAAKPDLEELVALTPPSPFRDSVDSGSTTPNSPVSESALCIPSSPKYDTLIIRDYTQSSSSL

| SMILES | IC50 [1] | IC50 [2] |
| --- | --- | --- |
| [3H]C([3H])([3H])OCc1cccc(C#Cc2cccc(C)n2)c1 | 0.01 µM | 0.0036 µM |
| Cc1cccc(/C=C/c2ccccc2)n1 | 3 µM | 1.1 µM |
